# Experimental data reported in article PMC4585333, “Novel Regulator of Acylated Ghrelin, CF801, Reduces Weight Gain, Rebound Feeding after a Fast, and Adiposity in Mice” (Frontiers in Endocrinology, 2015).
# “Also recorded” adds a separate entry of the source.
# What was measured:
# plasma acylated ghrelin = assay: Plasma acylated ghrelin in fasted mice (ELISA); format: in vivo, male C57BL/6J mice
# Description: In general, male C57BL/6J mice (The Jackson Laboratory, Bar Harbor, ME, USA) weighing 20–25 g were used as experimental subjects. Throughout the duration of the studies, mice were housed under standard laboratory conditions and received ad libitum access to standard laboratory mouse chow and tap water. Lights in the facility were set to go on and off at 12 h intervals with the lights going on at 7:00 a.m. In some experiments, mice also had ad libitum access to a high-fat diet containing 60% caloric content from fat (TD 06414; Harlan Teklad, Indianapolis, IN, USA) in addition to regular chow to measure dietary preferences. All procedures were approved by the Carleton University Animal Care Committee and followed the guidelines of the Canadian Council on Animal Care.
# Mice (n = 16) were singly housed and given free access to water and regular chow for a 4-day baseline period. After this, mice were assigned to one of three groups: vehicle (n = 5), CF801 low dose (n = 5; 11 μmol⋅kg^−1 – LD), or CF801 high dose (n = 6; 22 μmol⋅kg^−1 – HD). […] Food intake was then monitored every hour for 4 h to determine the effects of CF801 on rebound feeding. […]
# Following the treatment or recovery periods, mice were killed by rapid decapitation and plasma and tissue samples were collected. […] Plasma acylated ghrelin for all animals was measured using an ELISA kit (Millipore).
# [1] = Indirect calorimetry, respiratory exchange ratio; format: in vivo, male C57BL/6J mice; settings: 22 μmol⋅kg^−1 i.p. daily for a week, 4-h period following injection, n = 5 vs saline n = 5; t(5) = 3.457, p < 0.05
# Description: Mice (n = 10) were housed individually and their body weight and food intake was recorded daily for a baseline period of 10 days. As in Experiment 1, all mice had ad libitum access to regular lab chow and a high-fat diet (60% of calories coming from fat). At the end of the baseline, mice were housed in metabolic chambers (TSE Systems) for 48 h to examine metabolic rate using indirect calorimetry prior to the onset of the drug treatment. While indirect calorimetry measures were obtained throughout the 48-h period, we only analyzed measurements in the last 24 h to allow the animals to adjust to the chambers. Mice were then assigned to one of two groups: vehicle (0.9% saline) (VEH; n = 5) and CF801 (22 μmol⋅kg^−1; n = 5). Each day at 09:00 hours, mice were weighed and their food intake (both chow and high-fat diet) was recorded, and then received an intraperitoneal injection of either CF801 or saline. Drug treatment continued for 16 days. On the eighth day, mice were again placed in the metabolic chambers for 48 h while still being monitored and injected with their respective treatment to determine differences in metabolism produced by the drug.
# Given that treatment with CF801 decreased weight gain without altering caloric intake, we reasoned that perhaps CF801 was exerting its effects at the metabolic level. […]
sequence,measurement,setting,value
GSAFLSPEHQRK KRRQRRR-NH2 [CF801],"plasma acylated ghrelin concentration, high dose","plasma acylated ghrelin; 22 μmol⋅kg^−1 i.p. once daily for 4 days, after fast, vs vehicle, p < 0.05 Fisher LSD",statistically significant; also recorded: reduced levels of plasma acylated ghrelin
same,"plasma acylated ghrelin concentration, dose dependence","plasma acylated ghrelin; i.p. once daily for 4 days, 11 and 22 μmol⋅kg^−1, F(2,24) = 2.90, p < 0.05, partial eta^2 = 0.22",dose-dependent decrease in plasma ghrelin concentrations
same,respiratory exchange ratio (RER),[1],significant decrease in RER
